Entries after “also recorded” stand apart in the source; their conditions may differ.
Columns and labels:
[1] = system: pediatric patients exposed to cardiopulmonary bypass in congenital heart defect surgery; experiment: Phase 3 double-blind, placebo-controlled trial of citrulline in cardiopulmonary bypass surgery, re-analysed by percent of intraoperative Dose 2 received; type: in vivo
Description: A Phase 3 study was carried out as a double-blind, placebo-controlled trial to confirm the effect. The Phase 3 trial was performed in the US, EU, and Israel, using a modified intent-to-treat population (or modified full analysis set) of 190 patients, of whom 138 were in the US and 52 were ex-US.
The starting point for the analysis was consideration of the complete modified full analysis set, consisting of all enrolled patients who completed the protocol. […] The Modified Full Analysis Set consists of all enrolled patients who completed the protocol.
In the study protocol and accompanying pharmacy manual for both studies, citrulline dosing occurs in four distinct phases. Dose 1 is a loading dose added to the cardiopulmonary […] bypass fluids on a mg/kg basis. Dose 3 is a bolus administered following surgery on a mg/kg basis, and Dose 4 is an IV drip at 9 mg/kg/hour. No variation in administration of these doses was introduced during the course of the phase 3 study.
In contrast, Dose 2, the intraoperative dosing designed to compensate for ultrafiltration, was subject to some variation. Ultrafiltration during cardiac surgery is not standardized, and therefore, it was not possible to completely standardize this dose. The perfusionist estimates the volume of ultrafiltrate removed, as well as the volume of cardioplegia solution. The perfusionist then calculates according to the study pharmacy manual instructions the amount of citrulline to be administered to compensate for the ultrafiltered citrulline in order to maintain a specified therapeutic level.
Although the therapeutic target level was set at 100 micromolar during the phase 2 study, because of the potential for variation in Dose 2 (which is given intraoperatively to compensate for the routine ongoing ultrafiltration of circulating bypass fluids to reduce the circulating concentrations of inflammatory mediators) and the concern that some patients might inadvertently receive sub-therapeutic intraoperative levels, the target level for Dose 2 in the phase 3 study was increased to 200 micromolar. This was considered to be safe since no adverse effects of citrulline had been reported, even at substantially higher levels in medical use. In order to examine whether variation in Dose 2 could explain the results obtained, the actual dose received, shown as the percent of the targeted dose, was plotted against the composite variable results. Since placebos received no citrulline, they were plotted at the 0% level.
For the Phase 3 trial, a target intraoperative dose of […] (Dose 2) was chosen to preclude an inadvertent drop below an efficacious level in any patient. The potential for variation in intraoperative dosing arises from the lack of standardization of cardiopulmonary bypass ultrafiltration techniques. […] Nonetheless, expansion of the study to a greater number of sites raised the concern that some sites might inadvertently underdose Dose 2. Given the known innocuous nature of L-citrulline, an endogenous amino acid that is given medicinally in doses an order of magnitude higher than this to urea cycle disorder patients, as well as the well-tolerated high endogenous concentrations of citrulline in hypercitrullinemia patients, there was no concern for erring on the high side of the presumed effective dose.
To investigate the data in more detail, patients were stratified according to the dose level actually administered intraoperatively. The values obtained for duration of mechanical ventilation (MV), length of inotrope therapy (InoTx) and the composite primary (created for the SAP, based on the longer of the MV or InoTx) in any patient were segmented into groups based on the percent of the 200 μmol target dose actually received by the patient, by comparing patients who had received <65%, <75%, <85%, <95%, and >95% of the calculated target dose. […] Analysis was performed via two-sided Wilcoxon Rank Sum. […]

[2] = system: pediatric patients undergoing surgical procedures involving cardiopulmonary bypass; conditions: 22 patients (11 Tx, 11 PL); Dose 2 100 μmol; cited from earlier work
[3] = system: nitric oxide production; experiment: Nitric oxide production in a murine system, measured via NO metabolites; conditions: increasing citrulline concentration
Excerpt: It is important to recall that citrulline is regenerated in the last step of NO production, making negative feedback by citrulline a reasonable hypothesis. Alternatively, an acute increase in NO production, which is known to have a negative feedback effect on NOS (Viziri and Wang, 1999) could explain the results. […] The negative clinical effects in the >95% group for the Phase 3 trial may thus result from one or more negative feedback mechanisms. The negative feedback could result from either the effect of NO or the citrulline itself creating feedback on the system.

## NC(=O)NCCC[C@H](N)C(=O)O [citrulline, L-citrulline]
[1]; <65% of target Dose 2, p = 0.0040
  Composite (longer of MV or InoTx), median: 1267.0 min
[1]; <65% of target Dose 2, p = 0.0236
  PICU/NICU stay, median: 2 days
[1]; <65% of target Dose 2, p = 0.0953
  Hospitalization, median: 4 days
[1]; <75% of target Dose 2
  Reduction of median Composite vs placebo: 42%
  Reduction of median Inotrope vs placebo: 26%
  Reduction of median Mechanical Ventilation vs placebo: 70%
[1]; <75% of target Dose 2, p = 0.0025
  Composite (longer of MV or InoTx), median: 1267.0 min
[1]; <75% of target Dose 2, p = 0.0129
  Vent (duration of mechanical ventilation), median: 170.0 min
[1]; <75% of target Dose 2, p = 0.0295
  PICU/NICU stay, median: 2 days
[1]; <75% of target Dose 2, p = 0.1905
  Hospitalization, median: 5 days
[1]; <75% of the calculated Dose 2
  overall length of hospital stay vs placebo: not significantly different
[1]; <85% of target Dose 2, p = 0.0029
  Composite (longer of MV or InoTx), median: 1283.5 min
[1]; <85% of target Dose 2, p = 0.0332
  PICU/NICU stay, median: 2 days
[1]; <85% of target Dose 2, p = 0.1369
  Hospitalization, median: 5 days
[1]; <95% of target Dose 2, p = 0.0033
  Composite (longer of MV or InoTx), median: 1357.0 min
[1]; <95% of target Dose 2, p = 0.0242
  Inotrope (duration of inotrope therapy), median: 1300.0 min
[1]; <95% of target Dose 2, p = 0.1232
  PICU/NICU stay, median: 2 days
[1]; <95% of target Dose 2, p = 0.3169
  Hospitalization, median: 5 days
[1]; >95% of target Dose 2, p = 0.0006
  Hospitalization, median: 7 days
[1]; >95% of target Dose 2, p = 0.0034
  PICU/NICU stay, median: 4 days
[1]; >95% of target Dose 2, p = 0.0114
  Composite (longer of MV or InoTx), median: 3447.0 min
[1]; >95% of the targeted dose (>190 μmol)
  composite variable, duration of mechanical ventilation and duration of inotrope therapy vs placebo: worse results when treated with citrulline than placebo patients
[1]; All Patients, p = 0.3398 vs placebo (placebo median 2204.0)
  Composite (longer of MV or InoTx), median: 1640.0 min
[1]; All Patients, p = 0.3681 vs placebo (placebo median 5)
  Hospitalization, median: 5 days
[1]; All Patients, p = 0.8484 vs placebo (placebo median 3)
  PICU/NICU stay, median: 3 days
[1]; Dose 2 at levels <95% of target
  reduction in the length of stay in the PICU or NICU following surgery: statistically significant reduction of one day
[1]; Dose 2 at levels <95% of target, two-sided Wilcoxon Rank Sum
  composite variable, duration of mechanical ventilation and duration of inotrope therapy vs placebo: Statistically significant reduction of all variables; also recorded: highly significant reductions
[1]; complete modified full analysis set
  composite endpoint, treated vs placebo: showed no difference
[2]
  primary parameters (duration of MV & InoTx) vs placebo: near-significance
[3]
  production of NO as measured via NO metabolites: increasing levels of citrulline initially facilitate nitric oxide production; however, continued increase in citrulline concentration results in diminished production of NO

— patent US20260256724A1, “T[…] FOR […]” (Asklepion Pharmaceuticals LLC, priority 2022, published 2026)
